Results published in ChEMBL document CHEMBL4806966, “Methods for treating centronuclear myopathy” (2020).
Each block holds one compound with its values, some of them ahead of it.

Experiments:
[1] = target: Phosphatidylinositol 4,5-bisphosphate 3-kinase catalytic subunit beta isoform (Homo sapiens, UniProt P42338); experiment: Inhibition of PI3Kbeta (unknown origin)
Homo sapiens [2] = species on record: Homo sapiens; experiment: Selectivity index, ratio of IC50 for human PIK3C2B to IC50 for PI3Kbeta (unknown origin)
[3] = target: T1, Phosphatidylinositol 4-phosphate 3-kinase C2 domain-containing subunit alpha (Homo sapiens, UniProt O00443); experiment: Inhibition of human PIK3C2A using phosphatidylinositol as substrate at 741 nM after 1 hr by TR-FRET based Adapta universal kinase assay relative to control
T1 sequence (O00443 whole entry, the tested form may be a part): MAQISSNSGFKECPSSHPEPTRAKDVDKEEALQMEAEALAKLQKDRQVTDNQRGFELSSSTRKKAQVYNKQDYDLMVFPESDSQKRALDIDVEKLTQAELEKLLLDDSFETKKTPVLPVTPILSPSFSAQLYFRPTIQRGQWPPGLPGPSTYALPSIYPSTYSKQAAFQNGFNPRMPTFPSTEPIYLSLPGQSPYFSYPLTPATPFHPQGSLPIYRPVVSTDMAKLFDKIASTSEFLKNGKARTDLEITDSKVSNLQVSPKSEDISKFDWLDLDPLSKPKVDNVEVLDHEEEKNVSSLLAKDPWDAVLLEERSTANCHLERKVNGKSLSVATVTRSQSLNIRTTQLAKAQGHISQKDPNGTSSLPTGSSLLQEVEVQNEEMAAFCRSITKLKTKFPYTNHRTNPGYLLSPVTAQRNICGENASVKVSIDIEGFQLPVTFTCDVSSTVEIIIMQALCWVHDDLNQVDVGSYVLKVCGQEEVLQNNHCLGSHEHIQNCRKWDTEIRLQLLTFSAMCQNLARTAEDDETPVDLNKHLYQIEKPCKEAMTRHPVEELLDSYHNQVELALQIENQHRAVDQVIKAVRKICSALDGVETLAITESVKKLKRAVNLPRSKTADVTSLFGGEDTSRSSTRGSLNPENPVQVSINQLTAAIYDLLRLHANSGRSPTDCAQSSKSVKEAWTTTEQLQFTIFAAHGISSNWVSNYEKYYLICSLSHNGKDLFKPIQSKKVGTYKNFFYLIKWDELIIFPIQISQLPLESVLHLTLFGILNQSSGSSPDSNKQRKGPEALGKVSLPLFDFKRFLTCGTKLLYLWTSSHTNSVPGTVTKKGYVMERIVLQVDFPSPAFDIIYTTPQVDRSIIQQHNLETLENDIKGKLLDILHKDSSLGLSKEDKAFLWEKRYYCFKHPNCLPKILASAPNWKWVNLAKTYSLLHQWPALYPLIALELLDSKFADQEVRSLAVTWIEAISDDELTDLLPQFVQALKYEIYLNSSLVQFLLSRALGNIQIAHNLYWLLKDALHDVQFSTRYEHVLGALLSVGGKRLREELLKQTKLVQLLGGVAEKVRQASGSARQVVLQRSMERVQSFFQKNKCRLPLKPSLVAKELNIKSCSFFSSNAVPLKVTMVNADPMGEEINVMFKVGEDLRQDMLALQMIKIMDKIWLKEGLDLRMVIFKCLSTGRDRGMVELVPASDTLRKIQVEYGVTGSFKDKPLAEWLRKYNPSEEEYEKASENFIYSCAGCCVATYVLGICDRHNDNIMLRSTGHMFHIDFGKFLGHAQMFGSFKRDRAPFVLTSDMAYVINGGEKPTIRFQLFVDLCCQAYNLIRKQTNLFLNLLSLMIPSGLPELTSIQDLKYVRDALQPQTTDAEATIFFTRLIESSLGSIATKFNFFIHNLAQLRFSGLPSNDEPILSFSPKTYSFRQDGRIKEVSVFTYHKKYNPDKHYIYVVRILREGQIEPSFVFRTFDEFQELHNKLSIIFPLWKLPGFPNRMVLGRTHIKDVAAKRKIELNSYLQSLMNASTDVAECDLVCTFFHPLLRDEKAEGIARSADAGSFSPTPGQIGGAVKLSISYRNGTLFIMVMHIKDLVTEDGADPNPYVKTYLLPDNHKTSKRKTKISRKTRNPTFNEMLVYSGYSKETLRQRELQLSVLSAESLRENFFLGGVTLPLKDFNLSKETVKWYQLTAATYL

[4] = target: T1, Phosphatidylinositol 4-phosphate 3-kinase C2 domain-containing subunit alpha; experiment: Inhibition of human PIK3C2A using phosphatidylinositol as substrate at 6667 nM after 1 hr by TR-FRET based Adapta universal kinase assay relative to control
[5] = target: T1, Phosphatidylinositol 4-phosphate 3-kinase C2 domain-containing subunit alpha; experiment: Inhibition of human PIK3C2A using phosphatidylinositol as substrate at 9.1 nM after 1 hr by TR-FRET based Adapta universal kinase assay relative to control
[6] = target: T1, Phosphatidylinositol 4-phosphate 3-kinase C2 domain-containing subunit alpha; experiment: Inhibition of human PIK3C2A using phosphatidylinositol as substrate at 82 nM after 1 hr by TR-FRET based Adapta universal kinase assay relative to control
Homo sapiens [7] = species on record: Homo sapiens; experiment: Selectivity index, ratio of IC50 for human PIK3C2A to IC50 for human PIK3C2B
[8] = target: Phosphatidylinositol 4-phosphate 3-kinase C2 domain-containing subunit beta (Homo sapiens) (UniProt O00750); experiment: Inhibition of human PIK3C2B using phosphatidylinositol as substrate at 0.051 nM after 1 hr by TR-FRET based Adapta universal kinase assay
Chain of Phosphatidylinositol 4-phosphate 3-kinase C2 domain-containing subunit beta (Homo sapiens) (O00750 whole entry, the tested form may be a part): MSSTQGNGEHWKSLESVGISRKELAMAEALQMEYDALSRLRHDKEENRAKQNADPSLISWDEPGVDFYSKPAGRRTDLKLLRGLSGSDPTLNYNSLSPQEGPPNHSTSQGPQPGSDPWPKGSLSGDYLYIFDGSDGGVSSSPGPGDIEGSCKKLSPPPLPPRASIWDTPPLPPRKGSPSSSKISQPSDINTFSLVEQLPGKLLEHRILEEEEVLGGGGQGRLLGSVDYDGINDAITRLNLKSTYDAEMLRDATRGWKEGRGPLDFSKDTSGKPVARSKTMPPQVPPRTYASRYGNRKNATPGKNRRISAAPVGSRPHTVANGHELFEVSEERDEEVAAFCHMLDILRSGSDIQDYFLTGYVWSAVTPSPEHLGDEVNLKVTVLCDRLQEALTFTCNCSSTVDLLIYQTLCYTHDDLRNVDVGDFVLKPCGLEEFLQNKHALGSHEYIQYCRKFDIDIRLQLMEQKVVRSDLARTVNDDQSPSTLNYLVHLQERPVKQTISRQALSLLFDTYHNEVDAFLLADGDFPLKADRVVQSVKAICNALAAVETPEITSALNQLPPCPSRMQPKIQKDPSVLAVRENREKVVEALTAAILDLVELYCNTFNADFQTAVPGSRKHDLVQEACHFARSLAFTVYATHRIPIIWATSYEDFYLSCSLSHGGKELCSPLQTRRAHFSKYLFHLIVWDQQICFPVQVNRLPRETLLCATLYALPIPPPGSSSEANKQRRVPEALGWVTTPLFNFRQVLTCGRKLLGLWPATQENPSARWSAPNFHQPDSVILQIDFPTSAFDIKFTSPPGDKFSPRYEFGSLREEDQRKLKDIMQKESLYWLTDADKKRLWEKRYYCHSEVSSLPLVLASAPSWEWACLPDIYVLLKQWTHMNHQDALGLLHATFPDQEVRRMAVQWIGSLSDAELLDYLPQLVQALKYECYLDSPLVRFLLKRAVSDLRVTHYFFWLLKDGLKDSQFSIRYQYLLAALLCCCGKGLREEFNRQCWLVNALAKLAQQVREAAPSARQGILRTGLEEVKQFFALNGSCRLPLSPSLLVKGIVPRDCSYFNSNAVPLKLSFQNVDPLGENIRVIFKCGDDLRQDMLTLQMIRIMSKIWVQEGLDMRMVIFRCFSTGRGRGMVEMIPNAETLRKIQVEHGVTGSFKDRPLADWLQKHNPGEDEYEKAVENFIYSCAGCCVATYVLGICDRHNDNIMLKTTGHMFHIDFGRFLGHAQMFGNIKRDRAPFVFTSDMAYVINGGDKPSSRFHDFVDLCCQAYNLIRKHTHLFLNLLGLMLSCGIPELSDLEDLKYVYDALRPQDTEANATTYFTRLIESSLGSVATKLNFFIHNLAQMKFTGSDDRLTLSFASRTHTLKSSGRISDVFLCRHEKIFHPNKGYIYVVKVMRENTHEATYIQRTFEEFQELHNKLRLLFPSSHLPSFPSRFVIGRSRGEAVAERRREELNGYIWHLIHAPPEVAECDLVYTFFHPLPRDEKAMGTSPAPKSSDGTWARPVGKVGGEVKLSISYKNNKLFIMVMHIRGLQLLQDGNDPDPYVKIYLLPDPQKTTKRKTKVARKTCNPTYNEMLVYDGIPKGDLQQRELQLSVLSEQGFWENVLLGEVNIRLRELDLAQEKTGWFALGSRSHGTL

[9] = target: T1, Phosphatidylinositol 4-phosphate 3-kinase C2 domain-containing subunit alpha; experiment: Inhibition of human PIK3C2A using phosphatidylinositol as substrate at 247 nM after 1 hr by TR-FRET based Adapta universal kinase assay relative to control
[10] = target: Phosphatidylinositol 4-phosphate 3-kinase C2 domain-containing subunit beta (Homo sapiens) (UniProt O00750); experiment: Inhibition of human PIK3C2B using phosphatidylinositol as substrate at 111 nM after 1 hr by TR-FRET based Adapta universal kinase assay
[11] = target: Phosphatidylinositol 4-phosphate 3-kinase C2 domain-containing subunit beta (Homo sapiens) (UniProt O00750); experiment: Inhibition of human PIK3C2B using phosphatidylinositol as substrate at 1000 nM after 1 hr by TR-FRET based Adapta universal kinase assay
[12] = target: T1, Phosphatidylinositol 4-phosphate 3-kinase C2 domain-containing subunit alpha; experiment: Inhibition of human PIK3C2A using phosphatidylinositol as substrate at 3.03 nM after 1 hr by TR-FRET based Adapta universal kinase assay relative to control
[13] = target: Phosphatidylinositol 4-phosphate 3-kinase C2 domain-containing subunit beta (Homo sapiens) (UniProt O00750); experiment: Inhibition of human PIK3C2B using phosphatidylinositol as substrate at 0.153 nM after 1 hr by TR-FRET based Adapta universal kinase assay
[14] = target: Phosphatidylinositol 4-phosphate 3-kinase C2 domain-containing subunit beta (Homo sapiens) (UniProt O00750); experiment: Inhibition of human PIK3C2B using phosphatidylinositol as substrate at 12.3 nM after 1 hr by TR-FRET based Adapta universal kinase assay
[15] = target: Phosphatidylinositol 4-phosphate 3-kinase C2 domain-containing subunit beta (Homo sapiens) (UniProt O00750); experiment: Inhibition of human PIK3C2B using phosphatidylinositol as substrate at 333 nM after 1 hr by TR-FRET based Adapta universal kinase assay
[16] = target: T1, Phosphatidylinositol 4-phosphate 3-kinase C2 domain-containing subunit alpha; experiment: Inhibition of human PIK3C2A using phosphatidylinositol as substrate at 20000 nM after 1 hr by TR-FRET based Adapta universal kinase assay relative to control
[17] = target: Phosphatidylinositol 4-phosphate 3-kinase C2 domain-containing subunit beta (Homo sapiens) (UniProt O00750); experiment: Inhibition of human PIK3C2B using phosphatidylinositol as substrate at 37 nM after 1 hr by TR-FRET based Adapta universal kinase assay
[18] = target: Phosphatidylinositol 4-phosphate 3-kinase C2 domain-containing subunit beta (Homo sapiens) (UniProt O00750); experiment: Inhibition of human PIK3C2B using phosphatidylinositol as substrate at 0.46 nM after 1 hr by TR-FRET based Adapta universal kinase assay
[19] = target: T1, Phosphatidylinositol 4-phosphate 3-kinase C2 domain-containing subunit alpha; experiment: Inhibition of human PIK3C2A using phosphatidylinositol as substrate at 2222 nM after 1 hr by TR-FRET based Adapta universal kinase assay relative to control
[20] = target: Phosphatidylinositol 4-phosphate 3-kinase C2 domain-containing subunit beta (Homo sapiens) (UniProt O00750); experiment: Inhibition of human PIK3C2B using phosphatidylinositol as substrate at 1.37 nM after 1 hr by TR-FRET based Adapta universal kinase assay
[21] = target: T1, Phosphatidylinositol 4-phosphate 3-kinase C2 domain-containing subunit alpha; experiment: Inhibition of human PIK3C2A using phosphatidylinositol as substrate and 10 uM ATP after 1 hr by TR-FRET based Adapta universal kinase assay
[22] = target: Phosphatidylinositol 4-phosphate 3-kinase C2 domain-containing subunit beta (Homo sapiens) (UniProt O00750); experiment: Inhibition of human PIK3C2B using phosphatidylinositol as substrate at 4.1 nM after 1 hr by TR-FRET based Adapta universal kinase assay
[23] = target: T1, Phosphatidylinositol 4-phosphate 3-kinase C2 domain-containing subunit alpha; experiment: Inhibition of human PIK3C2A using phosphatidylinositol as substrate at 27.3 nM after 1 hr by TR-FRET based Adapta universal kinase assay relative to control

Chain of Phosphatidylinositol 4,5-bisphosphate 3-kinase catalytic subunit beta isoform (P42338 whole entry, canonical isoform): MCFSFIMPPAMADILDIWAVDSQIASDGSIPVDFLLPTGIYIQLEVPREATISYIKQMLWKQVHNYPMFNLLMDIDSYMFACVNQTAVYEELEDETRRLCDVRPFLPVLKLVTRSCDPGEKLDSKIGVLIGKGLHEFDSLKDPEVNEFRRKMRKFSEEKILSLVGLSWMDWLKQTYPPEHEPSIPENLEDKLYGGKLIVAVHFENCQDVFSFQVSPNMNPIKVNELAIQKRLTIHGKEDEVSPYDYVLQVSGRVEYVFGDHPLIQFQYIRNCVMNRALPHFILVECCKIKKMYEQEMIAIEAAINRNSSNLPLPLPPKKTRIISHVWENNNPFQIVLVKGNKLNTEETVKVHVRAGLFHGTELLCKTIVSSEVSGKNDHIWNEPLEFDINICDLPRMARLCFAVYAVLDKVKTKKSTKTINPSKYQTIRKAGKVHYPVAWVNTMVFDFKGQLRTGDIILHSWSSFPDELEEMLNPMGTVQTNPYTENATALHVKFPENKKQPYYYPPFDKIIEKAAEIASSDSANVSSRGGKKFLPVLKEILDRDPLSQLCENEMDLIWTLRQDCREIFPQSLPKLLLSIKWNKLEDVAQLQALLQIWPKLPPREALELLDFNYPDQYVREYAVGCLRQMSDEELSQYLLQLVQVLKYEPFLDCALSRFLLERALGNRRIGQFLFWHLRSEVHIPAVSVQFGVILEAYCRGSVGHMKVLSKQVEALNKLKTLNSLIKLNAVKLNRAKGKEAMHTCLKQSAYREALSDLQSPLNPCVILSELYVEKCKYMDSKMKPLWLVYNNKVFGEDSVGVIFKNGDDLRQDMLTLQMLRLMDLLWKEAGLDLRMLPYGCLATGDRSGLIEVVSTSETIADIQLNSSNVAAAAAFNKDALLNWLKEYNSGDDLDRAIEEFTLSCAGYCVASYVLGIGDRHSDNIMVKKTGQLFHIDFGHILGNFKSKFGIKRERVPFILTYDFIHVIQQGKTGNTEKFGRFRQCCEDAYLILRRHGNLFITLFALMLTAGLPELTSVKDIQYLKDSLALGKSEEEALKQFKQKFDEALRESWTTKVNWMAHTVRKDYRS

IC50 [1]: 0.016 µM | Ratio IC50 (Homo sapiens [2]): 6
SMILES: Cc1c(Cn2c(C)nc(=O)c3sc(N4CCOCC4)nc32)cccc1C(F)(F)F

inhibition [3]: 17% | inhibition [4]: 46% | inhibition [5]: -3% | inhibition [6]: 0% | Ratio IC50 (Homo sapiens [7]): 449 | inhibition [8]: 16% | inhibition [9]: 6% | inhibition [10]: 90% | inhibition [11]: 93% | inhibition [12]: -3% | inhibition [13]: -3% | inhibition [14]: 49% | inhibition [15]: 93% | inhibition [16]: 78% | inhibition [17]: 74% | inhibition [18]: 10% | inhibition [19]: 36% | inhibition [20]: 21% | IC50 [21]: 9.57 µM | inhibition [22]: 27% | inhibition [23]: -4%
SMILES: CN(C)C(=O)c1ccc2c(c1)c(C[C@H]1COCCN1c1nc3c(s1)C(=O)NC(C)(C)C3)cn2C
